Data reported in patent US12528837B2, “Aryl substituted polymyxin derivatives” (priority 2018, dated 2026).
Converted amounts (≈) assume the structure as drawn. Like-named read-outs stand apart in the source and are kept apart here. *1 amine or outer side, *2 acyl side, *3 side chain or, on linkers, in order; H or OH if unused. Where a SMILES comes first, the peptide text is derived from it. Bridges are numbered along the chain shown (N, C = ends). [ ]: non-standard residue; d: D form. The star is where a group is joined. GABA(3S-Bn) = O=C(C[C@@H](CN[*:1])Cc1ccccc1)[*:2]; X20 = NC[C@H](CC(=O)*)c1cccc(-c2ccccc2)c1; X21 = NC[C@H](CC(=O)*)c1cc(Cl)cc(Cl)c1; X3 = CC(C)c1cccc([C@@H](CN)CC(=O)*)c1; X9 = CC(C)c1cccc([C@H](CN)CC(=O)*)c1; X19 = NC[C@@H](CC(=O)*)c1cccc(Br)c1; X4 = NC[C@@H](CC(=O)*)c1ccc(Cl)cc1; X7 = NC[C@H](CC(=O)*)c1cccc(Cl)c1; dNle = CCCC[C@@H](N)C(=O)O; Dab = NCC[C@H](N)C(=O)O; Abu = CC[C@H](N)C(=O)O; Dap = NC[C@H](N)C(=O)O

Experiments:
[1] = test system: A. baumannii ATCC BAA-747; format: cell-based
Method: (§1) The inoculum was prepared by making a direct suspension of isolated colonies (selected from an 18-24 hour Mueller-Hinton agar plate) adjusted to the 0.5 McFarland standard. […] The assays were performed in duplicate. […] The MIC values are quoted in μg/mL.

A. baumannii NCTC 13424 = format: cell-based
Method: as §1

P. aeruginosa ATCC 27853 = format: cell-based
Method: as §1

HK-2 cells = assay: In vitro renal cell toxicity assay (HK-2); format: cell-based
Method: The in vitro renal cell toxicity assay was performed according to the following protocol. […] Cells were seeded at 7,500 cells per well in 96-well plates and allowed to adhere overnight. […] Water and DMSO levels were kept constant at 5% and 0.5% respectively. The test compounds were incubated with cells for 24 h at 37° C. 5% CO2 in a humidified atmosphere. […] Media only background values were subtracted before the data was analysed using GraphPad Prism. Individual values were normalised to the vehicle control wells for each compound. Compound concentration values were plotted as log values to enable a dose-response curve to be fitted. The bottom of the curve was constrained to zero and IC50 values were determined. IC50 values are expressed relative to that for PMB in the same experiment. Where multiple determinations have been made, median values are presented.

[2] = Kidney drug level after subcutaneous dose in mouse; format: in vivo
Method: Four hours after dosing the animals were euthanised and kidneys removed, trimmed of fat and connective tissue, weighed and immediately snap-frozen. After thawing at room temperature, pairs of kidneys from each animal were placed in 2 mL conical tubes containing pre-weighed ceria-stabilised zirconium oxide beads. […] After 10 min. centrifugation at 13,000 rpm and 6° C., 200 μl of the supernatants were transferred into glass inserts and analysed by LC-MS-MS.

K. pneumoniae CA64 = format: cell-based
Method: (§2) The inoculum was prepared by making a direct suspension of isolated colonies (selected from an 18-24 hour Mueller-Hinton agar plate) adjusted to the 0.5 McFarland standard. […] The assays were performed in duplicate. […] Several of the compounds were subjected to multiple tests, and where this is the case, the MIC presented is the median value obtained. The MIC values are quoted in μg/mL.

P. aeruginosa CCUG 59347 = format: cell-based
Method: as §2

E. coli CA58 = format: cell-based
Method: as §2

E. coli ATCC 25922 = format: cell-based; conditions: cation-adjusted Mueller-Hinton Broth, 18-20 h, 35° C.
Method: as §1

K. pneumoniae ATCC 13822 = format: cell-based; conditions: cation-adjusted Mueller-Hinton Broth, 18-20 h, 35° C.
Method: as §1

[3] = cation-adjusted Mueller-Hinton Broth, 18-20 h, 35° C.
[4] = IC50 relative to PMB in the same experiment, 24 h
[5] = mouse, in vivo, mice, 17.2 mg/kg free base sc, 4 h, read-out: 4 hr kidney level

Compound	MIC A. baumannii ATCC BAA-747 ([1]; ATCC BAA-747) [µg/mL]	MIC A. baumannii NCTC 13424 (A. baumannii NCTC 13424; NCTC 13424) [µg/mL]	HK-2 rel to PMB (HK-2 cells)	MIC K. pneumoniae CA64 (K. pneumoniae CA64; CA64) [µg/mL]	MIC P. aeruginosa CCUG 59347 (P. aeruginosa CCUG 59347; CCUG 59347) [µg/mL]	MIC E. coli CA58 (E. coli CA58; CA58) [µg/mL]	MIC E. coli ATCC 25922 (E. coli ATCC 25922) [µg/mL]	MIC K. pneumoniae ATCC 13822 (K. pneumoniae ATCC 13822) [µg/mL]	MIC P. aeruginosa ATCC 27853 (P. aeruginosa ATCC 27853; [3]) [µg/mL]	MIC K. pneumoniae CA64 (K. pneumoniae CA64; [3]) [µg/mL]	MIC P. aeruginosa CCUG 59347 (P. aeruginosa CCUG 59347; [3]) [µg/mL]	MIC E. coli CA58 (E. coli CA58; [3]) [µg/mL]	also measured
CC(C)C[C@@H]1NC(=O)[C@@H](Cc2ccccc2)NC(=O)[C@H](CCN)NC(=O)[C@@H](NC(=O)[C@H](CN)NC(=O)[C@@H](NC(=O)C[C@H](CN)c2ccc(Cl)cc2)[C@@H](C)O)CCNC(=O)[C@H]([C@@H](C)O)NC(=O)[C@H](CCN)NC(=O)[C@H](CCN)NC1=O [Example 1, (S)-4-amino-3-(4- chlorophenyl) butanoyl- Thr- Dap-Cyclo[Dab- Dab-DPhe-Leu-Dab- Dab-Thr]] (X4-T[Dap][Dab][Dab][dF]L[Dab][Dab]T; lactam 3-C)	0.06 (≈ 0.0524 µM)	0.06 (≈ 0.0524 µM)	8.8	8 (≈ 6.99 µM)	0.25 (≈ 0.218 µM)	4 (≈ 3.49 µM)							MIC P. aeruginosa ATCC 27853 (P. aeruginosa ATCC 27853; ATCC 27853): 0.06 µg/mL (≈ 0.0524 µM); 4 hr kidney level/rel. cytotoxicity ([2]; mouse, in vivo): 30; Drug Level in Kidney (μg/g kidney, 4 h) ([2]; mouse, in vivo, sc, 17.2 mg/kg): 268 μg/g kidney; tissue level at time at 4 h ([2]; mouse, in vivo, sc, 17.2 mg/kg): 267000 ng/g
CC(C)C[C@@H]1NC(=O)[C@@H](CC(C)C)NC(=O)[C@H](CCN)NC(=O)[C@@H](NC(=O)[C@H](CN)NC(=O)[C@@H](NC(=O)C[C@H](CN)c2cccc(C(C)C)c2)[C@@H](C)O)CCNC(=O)[C@H]([C@@H](C)O)NC(=O)[C@H](CCN)NC(=O)[C@H](CCN)NC1=O [Example 15, (S)-4-amino-3-(3- isopropylphenyl) butanoyl-Thr-Dap- Cyclo[Dab-Dab-DLeu- Leu-Dab-Dab-Thr]] (X3-T[Dap][Dab][Dab][dL]L[Dab][Dab]T; lactam 3-C)	0.06 (≈ 0.0536 µM)	0.06 (≈ 0.0536 µM)	52.1	16 (≈ 14.3 µM)	0.5 (≈ 0.447 µM)	4 (≈ 3.58 µM)							MIC P. aeruginosa ATCC 27853 (P. aeruginosa ATCC 27853; ATCC 27853): 0.25 µg/mL (≈ 0.224 µM); tissue level at time at 4 h ([2]; mouse, in vivo, sc, 17.2 mg/kg): 443000 ng/g
CC[C@@H]1NC(=O)[C@@H](Cc2ccccc2)NC(=O)[C@H](CCN)NC(=O)[C@@H](NC(=O)[C@H](CN)NC(=O)[C@@H](NC(=O)C[C@@H](CN)c2cccc(C(C)C)c2)[C@@H](C)O)CCNC(=O)[C@H]([C@@H](C)O)NC(=O)[C@H](CCN)NC(=O)[C@H](CCN)NC1=O [Example 18] (X9-T[Dap][Dab][Dab][dF][Abu][Dab][Dab]T; lactam 3-C)							0.25 (≈ 0.222 µM)	0.25 (≈ 0.222 µM)	0.25 (≈ 0.222 µM)	8 (≈ 7.12 µM)	0.25 (≈ 0.222 µM)	16 (≈ 14.2 µM)	HK-2 rel to PMB (HK-2 cells; [4]): 32.8; tissue level at time at 4 h [2, 5]: 535000 ng/g
CC(C)C[C@@H]1NC(=O)[C@@H](Cc2ccccc2)NC(=O)[C@H](CCN)NC(=O)[C@@H](NC(=O)[C@H](CN)NC(=O)[C@@H](NC(=O)C[C@@H](CN)Cc2ccccc2)[C@@H](C)O)CCNC(=O)[C@H]([C@@H](C)O)NC(=O)[C@H](CCN)NC(=O)[C@H](CCN)NC1=O [Example 10, (S)-4-amino-3- benzylbutanoyl-Thr- Dap-Cyclo[Dab-Dab- DPhe-Leu-Dab-Dab- Thr]. Isomer 2] ({GABA(3S-Bn)}-T[Dap][Dab][Dab][dF]L[Dab][Dab]T; lactam 3-C)								0.5 (≈ 0.445 µM)		16 (≈ 14.2 µM)	0.25 (≈ 0.222 µM)	8 (≈ 7.12 µM)	MIC A. baumannii ATCC BAA-747 [1, 3]: 0.25 µg/mL (≈ 0.222 µM); MIC A. baumannii NCTC 13424 (A. baumannii NCTC 13424; [3]): 0.25 µg/mL (≈ 0.222 µM); HK-2 rel to PMB (HK-2 cells; [4]): 8; Drug level in kidney ([2]; mouse, 17.2 mg/kg sc, 4 hours): 346 µg/g; tissue level at time at 4 h [2, 5]: 346000 ng/g; 4 hr kidney level/rel. cytotoxicity ([2]; ratio of 4 h kidney level to HK-2 IC50 relative to PMB): 43
CC[C@@H]1NC(=O)[C@@H](CC(C)C)NC(=O)[C@H](CCN)NC(=O)[C@@H](NC(=O)[C@H](CN)NC(=O)[C@@H](NC(=O)C[C@H](CN)c2cccc(Br)c2)[C@@H](C)O)CCNC(=O)[C@H]([C@@H](C)O)NC(=O)[C@H](CCN)NC(=O)[C@H](CCN)NC1=O [Example 32, (S)-4-amino-3-(3- bromophenyl)butanoyl- Thr-Dap-Cyclo[Dab- Dab-DLeu-Abu-Dab- Dab-Thr]] (X19-T[Dap][Dab][Dab][dL][Abu][Dab][Dab]T; lactam 3-C)							0.25 (≈ 0.222 µM)	0.5 (≈ 0.444 µM)	0.5 (≈ 0.444 µM)	32 (≈ 28.4 µM)	0.5 (≈ 0.444 µM)	32 (≈ 28.4 µM)	
CC(C)C[C@@H]1NC(=O)[C@@H](Cc2ccccc2)NC(=O)[C@H](CCN)NC(=O)[C@@H](NC(=O)[C@H](CN)NC(=O)[C@@H](NC(=O)C[C@@H](CN)c2cccc(Cl)c2)[C@@H](C)O)CCNC(=O)[C@H]([C@@H](C)O)NC(=O)[C@H](CCN)NC(=O)[C@H](CCN)NC1=O [Example 6, (R)-4-amino-3-(3- chlorophenyl) butanoyl- Thr-Dap-Cyclo[Dab- Dab-DPhe-Leu-Dab- Dab-Thr]] (X7-T[Dap][Dab][Dab][dF]L[Dab][Dab]T; lactam 3-C)	0.5 (≈ 0.437 µM)	0.5 (≈ 0.437 µM)	7.8	8 (≈ 6.99 µM)	0.5 (≈ 0.437 µM)	8 (≈ 6.99 µM)							4 hr kidney level/rel. cytotoxicity ([2]; mouse, in vivo): 49
CCCC[C@H]1NC(=O)[C@H](CCN)NC(=O)[C@@H](NC(=O)[C@H](CN)NC(=O)[C@@H](NC(=O)C[C@@H](CN)c2cc(Cl)cc(Cl)c2)[C@@H](C)O)CCNC(=O)[C@H]([C@@H](C)O)NC(=O)[C@H](CCN)NC(=O)[C@H](CCN)NC(=O)[C@H](CC)NC1=O [Example 29, (R)-4-amino-3-(3,5- dichlorophenyl)butanoyl- Thr-Dap- Cyclo[Dab-Dab- DnorLeu-Abu-Dab- Dab-Thr]] (X21-T[Dap][Dab][Dab][dNle][Abu][Dab][Dab]T; lactam 3-C)							0.25 (≈ 0.224 µM)	0.25 (≈ 0.224 µM)	0.25 (≈ 0.224 µM)	8 (≈ 7.16 µM)	0.5 (≈ 0.448 µM)	16 (≈ 14.3 µM)	
CC[C@@H]1NC(=O)[C@@H](CC(C)C)NC(=O)[C@H](CCN)NC(=O)[C@@H](NC(=O)[C@H](CN)NC(=O)[C@@H](NC(=O)C[C@@H](CN)c2cccc(-c3ccccc3)c2)[C@@H](C)O)CCNC(=O)[C@H]([C@@H](C)O)NC(=O)[C@H](CCN)NC(=O)[C@H](CCN)NC1=O [Example 25] (X20-T[Dap][Dab][Dab][dL][Abu][Dab][Dab]T; lactam 3-C)							0.25 (≈ 0.222 µM)	0.5 (≈ 0.445 µM)	0.25 (≈ 0.222 µM)	2 (≈ 1.78 µM)	0.5 (≈ 0.445 µM)	16 (≈ 14.2 µM)	
